Measurements reported in ChEMBL document CHEMBL5604063, “ASAP - DENV-2 NS2B-NS3 protease fluorescence dose response” (2024).
Values joined by “and” are separate entries in the source; they are usually repeats but may differ in a detail not shown here. Equal entries are not always repeated.

The compounds below were run against Genome polyprotein (dengue virus type 2, UniProt P29990).
Chain of Genome polyprotein (P29990 1346-1475 limits assumed): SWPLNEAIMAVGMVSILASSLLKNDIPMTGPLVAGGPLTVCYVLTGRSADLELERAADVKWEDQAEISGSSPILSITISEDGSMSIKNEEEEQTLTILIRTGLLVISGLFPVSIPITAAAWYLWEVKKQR
Chain of Genome polyprotein (P29990 1476-2093 limits assumed): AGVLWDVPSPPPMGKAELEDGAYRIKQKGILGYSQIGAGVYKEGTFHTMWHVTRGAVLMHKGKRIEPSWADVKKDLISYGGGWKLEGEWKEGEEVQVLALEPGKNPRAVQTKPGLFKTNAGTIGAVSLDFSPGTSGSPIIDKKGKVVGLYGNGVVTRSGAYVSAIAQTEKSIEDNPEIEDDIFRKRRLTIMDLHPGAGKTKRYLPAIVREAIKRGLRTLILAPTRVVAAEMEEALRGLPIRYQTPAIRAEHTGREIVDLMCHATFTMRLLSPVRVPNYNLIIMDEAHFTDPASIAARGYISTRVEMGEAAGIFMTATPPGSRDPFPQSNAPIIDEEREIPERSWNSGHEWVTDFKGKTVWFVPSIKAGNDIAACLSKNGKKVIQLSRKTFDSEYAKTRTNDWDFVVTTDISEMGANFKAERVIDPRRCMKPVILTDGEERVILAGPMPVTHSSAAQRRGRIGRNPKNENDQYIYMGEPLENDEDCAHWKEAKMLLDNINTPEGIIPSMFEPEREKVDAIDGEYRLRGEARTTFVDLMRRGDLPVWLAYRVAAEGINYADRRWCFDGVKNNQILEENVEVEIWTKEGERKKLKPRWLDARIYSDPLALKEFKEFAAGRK
Assay type: functional, Thailand/16681/1984
In the case of `CCN1CCN(c2ccc(NS(=O)(=O)c3ccc(Cl)cc3C(=O)O)cc2)CC1`, the IC50 is reported as > 99.5 µM.
In the case of `COc1ccc(F)cc1-c1ccc(S(=O)(=O)Nc2ccc(Cl)cc2C(=O)O)cc1`, the IC50 is reported as 11.7 µM.
`CCn1c(=O)c(N2C[C@H]3CCC[C@H]2C3)nc2ccccc21` was tested, and the IC50 was > 99.5 µM.
Work on `O=C(O)c1cc(Cl)ccc1S(=O)(=O)Nc1ccc(N2CCCCC2)c(Cl)c1` yielded an IC50 of 71.6 µM.
With `O=C(O)c1cc(Cl)ccc1S(=O)(=O)NC1CCN(c2ccc(C(F)(F)F)cn2)CC1` the IC50 was > 99.5 µM.
With `O=C(O)Cc1cc(NS(=O)(=O)c2ccc(Oc3ccccc3Cl)cc2)ccc1Cl` the IC50 was 96.1 µM.
`O=C(O)c1cc(F)c(F)c(F)c1NS(=O)(=O)c1ccc(Oc2ccccc2Cl)cc1` gave an IC50 of 24.5 µM.
With `CCC(=O)N1CCc2ccc(NS(=O)(=O)c3ccc(Cl)cc3C(=O)O)cc21` the IC50 was > 99.5 µM.
`Cc1nn(C)cc1-c1ccc(S(=O)(=O)Nc2ccc(Cl)cc2C(=O)O)cc1` showed an IC50 of 85.4 µM.
`O=C(Cn1ccnc(N2CC[C@H](CO)C2)c1=O)NCc1nccs1` was tested, and the IC50 was > 99.5 µM.
With `CCn1ccnc(N2C[C@H](c3c[nH]c4ccccc34)[C@H](N3C(=O)c4ccccc4C3=O)C2)c1=O` the IC50 was > 99.5 µM.
`O=C(Nc1ccc(NS(=O)(=O)c2ccc(Cl)cc2C(=O)O)cc1)c1ccccc1` was tested, and the IC50 was > 99.5 µM.
For `CC(C)Oc1ccccc1C(=O)N[C@H](C(=O)Nc1cccc(CN)c1)c1ccc(OCc2ccccc2)cc1`, the IC50 was 74.2 µM.
`COc1ccc(N2CCC(NS(=O)(=O)c3ccc(Cl)cc3C(=O)O)CC2)cc1` was tested, and the IC50 was > 99.5 µM.
`O=C(O)c1cc(Cl)ccc1S(=O)(=O)N[C@H]1CC[C@@H](Oc2ccccc2)CC1` was tested, and the IC50 was > 99.5 µM.
With `NCc1cccc(NC(=O)[C@H](NS(=O)(=O)CC2CCC2)c2ccc(OCc3ccccc3)cc2)c1` the IC50 was > 99.5 µM.
In the case of `COc1ccc(NS(=O)(=O)c2ccc(Cl)cc2C(=O)O)cc1-n1nnnc1C`, the IC50 is reported as > 99.5 µM.
`NCc1cccc(NC(=O)[C@H](NC(=O)Cc2ccccc2)c2ccc(OCc3ccccc3)cc2)c1` was tested, and the IC50 was 32.8 µM and 32.1 µM.
For `O=C(O)c1cc(Cl)ccc1NS(=O)(=O)c1ccc(-c2ccccc2Cl)cc1`, the IC50 was 6.93 µM.
Work on `NCc1cccc(NC(=O)[C@H](NC(=O)OCc2ccccc2)c2ccc(Br)cc2F)c1` yielded an IC50 of 66 µM.
With `Cn1ccnc(N2CCC(NS(=O)(=O)c3ccc(Cl)cc3C(=O)O)CC2)c1=O` the IC50 was > 99.5 µM.
In the case of `NCc1cccc(CNC(=O)c2cc(Cl)cc(NC(=O)OCc3ccccc3)c2)c1`, the IC50 is reported as > 99.5 µM.
With `NCc1cccc(NC(=O)[C@H](NC(=O)OCc2ccccc2)c2cccc(-c3ccc(S(N)(=O)=O)cc3)c2)c1` the IC50 was > 99.5 µM.
With `Cn1cc(-c2cccc([C@H](NC(=O)OCc3ccccc3)C(=O)Nc3cccc(CN)c3)c2)cn1` the IC50 was > 99.5 µM.
`COCc1cc(Cl)ccc1NS(=O)(=O)c1ccc(Oc2ccccc2Cl)cc1` was tested, and the IC50 was > 99.5 µM.
With `CCN(C(=O)Cn1ccnc(N2CC[C@H](CO)C2)c1=O)C(C)C` the IC50 was > 99.5 µM.
For `NCc1cccc(NC(=O)c2cc(NC(=O)OCc3ccccc3)c(=O)n3c2CCCC3)c1`, the IC50 was > 99.5 µM.
`COc1ncccc1-c1cccc([C@H](NC(=O)OCc2ccccc2)C(=O)Nc2cccc(CN)c2)c1` was tested, and the IC50 was > 99.5 µM.
In the case of `O=C(O)c1cc(Cl)ccc1S(=O)(=O)Nc1ccc(CCN2CCCC2)cc1`, the IC50 is reported as > 99.5 µM.
For `Cc1cc(N2CCCCC2)ccc1NS(=O)(=O)c1ccc(Cl)cc1C(=O)O`, the IC50 was > 99.5 µM.
For `NCc1cccc(NC(=O)[C@H](NC(=O)c2ccns2)c2ccc(OCc3ccccc3)cc2)c1`, the IC50 was > 99.5 µM.
`O=C(O)c1cc(Cl)ccc1S(=O)(=O)Nc1ccc(F)c(N2CCNC2=O)c1` was tested, and the IC50 was > 99.5 µM.
For `Cc1nccn1-c1ccc(NS(=O)(=O)c2ccc(Cl)cc2C(=O)O)cc1F`, the IC50 was > 99.5 µM.
In the case of `O=C(O)c1cc(Cl)ccc1NS(=O)(=O)c1ccc(-c2ccccc2F)cc1`, the IC50 is reported as 10.1 µM.
With `O=C(O)c1cc(Cl)ccc1S(=O)(=O)Nc1ccc(N2CCCS2(=O)=O)cc1` the IC50 was > 99.5 µM.
For `Cc1cc(N2CCC(NS(=O)(=O)c3ccc(Cl)cc3C(=O)O)CC2)nc(C)n1`, the IC50 was > 99.5 µM.
In the case of `CCOc1cccc(-c2ccc(S(=O)(=O)Nc3ccc(Cl)cc3C(=O)O)cc2)c1`, the IC50 is reported as 4.25 µM and 6.13 µM.
`NCC1(NC(=O)[C@H](NC(=O)OCc2ccccc2)c2ccc(OCc3ccccc3)cc2)CCCCC1` was tested, and the IC50 was > 99.5 µM.
In the case of `Cn1ccnc1C(=O)N[C@H](C(=O)Nc1cccc(CN)c1)c1ccc(OCc2ccccc2)cc1`, the IC50 is reported as > 99.5 µM.
`CCn1c(=O)c(N2C[C@H]3C[C@H]2CS(=O)(=O)C3)nc2ccccc21` was tested, and the IC50 was > 99.5 µM.
Work on `CS(=O)(=O)c1ccc(-c2ccc(S(=O)(=O)Nc3ccc(Cl)cc3C(=O)O)cc2)cc1` yielded an IC50 of 33.5 µM.
With `NCc1cccc(NC(=O)[C@H](NC(=O)OCc2ccccc2)c2cccc(-c3cncc(F)c3)c2)c1` the IC50 was > 99.5 µM.
With `CCn1c(=O)c(N2CC[C@H]3[C@H]2[C@H]3C(F)(F)F)nc2ccccc21` the IC50 was > 99.5 µM.
With `CS(=O)(=O)c1ccc(-c2cccc([C@H](NC(=O)OCc3ccccc3)C(=O)Nc3cccc(CN)c3)c2)cc1` the IC50 was 40 µM.
`CCC(C)(C)C(=O)N[C@H](C(=O)Nc1cccc(CN)c1)c1ccc(OCc2ccccc2)cc1` was tested, and the IC50 was > 99.5 µM.
With `O=C(O)c1cc(Cl)ccc1NS(=O)(=O)c1ccc(-c2cccnc2)cc1` the IC50 was 91.3 µM.
In the case of `O=C(O)c1cc(Cl)ccc1S(=O)(=O)NC1CCC(N2CCCCC2=O)CC1` (stereo not drawn), the IC50 is reported as > 99.5 µM.
With `O=C(O)c1cc(Cl)ccc1S(=O)(=O)Nc1ccc(Oc2ccccn2)cc1` the IC50 was > 99.5 µM.
`Cc1ccc(C(=O)N[C@H](C(=O)Nc2cccc(CN)c2)c2ccc(OCc3ccccc3)cc2)s1` showed an IC50 of 97.7 µM.
`CS(=O)(=O)c1cncc(-c2cccc([C@H](NC(=O)OCc3ccccc3)C(=O)Nc3cccc(CN)c3)c2)c1` gave an IC50 of 71.4 µM.
With `CCN1C[C@H]2C[C@@H]1CN2c1nc2ccccc2n(CC)c1=O` the IC50 was > 99.5 µM.
For `Cc1ccc(S(=O)(=O)N2CCC(NS(=O)(=O)c3ccc(Cl)cc3C(=O)O)CC2)cc1`, the IC50 was > 99.5 µM.
Work on `Cc1cc(OCc2ccccc2)ccc1NS(=O)(=O)c1ccc(Cl)cc1C(=O)O` yielded an IC50 of 27.1 µM.
`CCn1c(=O)c(N2CCC[C@@H]2c2cncn2C)nc2ccccc21` was tested, and the IC50 was > 99.5 µM.
With `CC(C)(C)OC(=O)NCc1cccc(NC(=O)[C@H](NC(=O)OCc2ccccc2)C2CCNCC2)c1` the IC50 was > 99.5 µM.
In the case of `N#Cc1ccccc1-c1ccc(S(=O)(=O)Nc2ccc(Cl)cc2C(=O)O)cc1`, the IC50 is reported as 25.1 µM.
For `CCn1c(=O)c(N2CCC[C@H]2C(=O)NC2CC2)nc2ccccc21`, the IC50 was > 99.5 µM.
With `NCc1cccc(NC(=O)[C@H](NC(=O)OCc2ccccc2)c2cccc(C3=CCCOC3)c2)c1` the IC50 was > 99.5 µM.
With `CC(C)[C@@H]1[C@H](C(=O)Nc2cccc(CN)c2)CCN1C(=O)OCc1ccccc1` the IC50 was > 99.5 µM.
`NCc1cccc(NC(=O)[C@H](NC(=O)C2CCCCC2)c2ccc(OCc3ccccc3)cc2)c1` was tested, and the IC50 was 17.6 µM and 20.7 µM and 12.3 µM.
For `Cn1ncc2cc(C(=O)N3CCC(NC(=O)[C@]4(C)CCC[C@H]4O)CC3)cc(O)c21`, the IC50 was > 99.5 µM.
With `O=C(O)c1cc(Cl)ccc1S(=O)(=O)Nc1ccc(N2CCCCCC2)cc1` the IC50 was 55.2 µM.
For `COc1ccc(NS(=O)(=O)c2ccc(Cl)cc2C(=O)O)cc1OC1CCCC1`, the IC50 was > 99.5 µM.
`O=C(O)c1cc(Cl)ccc1NS(=O)(=O)c1ccc(-c2cn[nH]c2)cc1` was tested, and the IC50 was > 99.5 µM.
`CCOc1cc(N2CCN(C)CC2)ccc1NS(=O)(=O)c1ccc(Cl)cc1C(=O)O` was tested, and the IC50 was > 99.5 µM.
`CCn1c(=O)c(N2CC[C@]3(CNC(=O)O3)C2)nc2ccccc21` was tested, and the IC50 was > 99.5 µM.
With `NCc1cccc(NC(=O)[C@H](NC(=O)c2ccncc2)c2ccc(OCc3ccccc3)cc2)c1` the IC50 was > 99.5 µM.
`NCc1ccc(NC(=O)c2cc(Cl)cc(NC(=O)OCc3ccccc3)c2)cc1` was tested, and the IC50 was 51.5 µM.
Compound `O=C(O)c1cc(Cl)ccc1S(=O)(=O)NC1CCN(S(=O)(=O)c2ccc(I)cc2)CC1` has an IC50 of 81.7 µM.
`O=C(O)c1cc(Cl)ccc1S(=O)(=O)Nc1ccc(-c2cccc(F)c2)cc1` showed an IC50 of 27 µM.
Compound `CC(=O)Nc1cccc(-c2ccc(S(=O)(=O)Nc3ccc(Cl)cc3C(=O)O)cc2)c1` has an IC50 of 23.9 µM.
For `NCc1cccc(N(C(=O)CNC(=O)OCc2ccccc2)c2ccc(OCc3ccccc3)cc2)c1`, the IC50 was > 99.5 µM.
For `CCN1C(=O)CCc2cc(NS(=O)(=O)c3ccc(Cl)cc3C(=O)O)ccc21`, the IC50 was > 99.5 µM.
`O=C(O)c1cc(Cl)ccc1S(=O)(=O)NC1CCN(Cc2ccccn2)CC1` was tested, and the IC50 was > 99.5 µM.
In the case of `CCn1c(=O)c(N2C[C@H](C)C[C@H]2c2ccccc2)nc2ccccc21`, the IC50 is reported as > 99.5 µM.
In the case of `CCn1c(=O)c(N2C[C@]3(CO)C[C@H]2CO3)nc2ccccc21`, the IC50 is reported as > 99.5 µM.
`COc1ccccc1-c1ccc(S(=O)(=O)Nc2ccc(Cl)cc2C(=O)O)cc1` showed an IC50 of 12.8 µM.
In the case of `O=C(O)c1cc(Cl)ccc1S(=O)(=O)N[C@H]1CCN(Cc2ccccc2)C2(CC2)C1`, the IC50 is reported as > 99.5 µM.
With `CC1(NS(=O)(=O)c2ccc(Cl)cc2C(=O)O)CCN(c2ccccc2)CC1` the IC50 was > 99.5 µM.
With `CCOCC(=O)N[C@H](C(=O)Nc1cccc(CN)c1)c1ccc(OCc2ccccc2)cc1` the IC50 was > 99.5 µM.
With `CCn1c(=O)c(N2CCC[C@@H]2Cn2cncn2)nc2ccccc21` the IC50 was > 99.5 µM.
`O=C(O)c1cc(Cl)ccc1S(=O)(=O)NC1CCN(C(=O)c2ccccc2C(F)(F)F)CC1` was tested, and the IC50 was > 99.5 µM.
In the case of `CCn1c(=O)c(N2CC[C@H](c3nncs3)C2)nc2ccccc21`, the IC50 is reported as > 99.5 µM.
With `NCc1cccc(NC(=O)[C@H](NC(=O)OCc2ccccc2)C2CCC(c3ccccc3)CC2)c1` (stereo partly drawn) the IC50 was 6.26 µM and 5.78 µM.
`NCc1ccccc1NC(=O)c1cc(Cl)cc(NC(=O)OCc2ccccc2)c1` was tested, and the IC50 was > 99.5 µM.
`Cc1cc(C)n(-c2ccc(NS(=O)(=O)c3ccc(Cl)cc3C(=O)O)cc2)n1` was tested, and the IC50 was > 99.5 µM.
`O=C(O)c1cc(Cl)ccc1S(=O)(=O)N[C@H]1CCN(Cc2ccccc2)C(=O)C1` was tested, and the IC50 was > 99.5 µM.
In the case of `O=C(O)c1cc(Cl)ccc1S(=O)(=O)N[C@H]1CC[C@H]2CN(Cc3ccccc3)C[C@H]2C1`, the IC50 is reported as > 99.5 µM.
In the case of `Cc1ncc(COc2ccc([C@H](NC(=O)OCc3ccccc3)C(=O)Nc3cccc(CN)c3)cc2)cn1`, the IC50 is reported as > 99.5 µM.
In the case of `CCCCN1Cc2ccc(NS(=O)(=O)c3ccc(Cl)cc3C(=O)O)cc2C1`, the IC50 is reported as > 99.5 µM.
For `CCn1c(=O)c(N2CC3(COC3)[C@](F)(CO)C2)nc2ccccc21`, the IC50 was > 99.5 µM.
With `NCc1cccc(NC(=O)c2cc(Cl)ccc2NS(=O)(=O)c2ccc(Oc3ccccc3Cl)cc2)c1` the IC50 was > 99.5 µM.
In the case of `CCn1c(=O)c(N2C[C@H]3C[C@H]2C(F)(F)C3)nc2ccccc21`, the IC50 is reported as > 99.5 µM.
With `CCn1c(=O)c(N2CC[C@]3(CCSC3)C2)nc2ccccc21` the IC50 was > 99.5 µM.
`NS(=O)(=O)c1cccc(-c2ccc(S(=O)(=O)Nc3ccc(Cl)cc3C(=O)O)cc2)c1` showed an IC50 of 30.6 µM.
`CCn1c(=O)c(N2CCC[C@@H]2Cc2cccs2)nc2ccccc21` was tested, and the IC50 was > 99.5 µM.
`CC(=O)N1CCN([C@H]2CC[C@H](NS(=O)(=O)c3ccc(Cl)cc3C(=O)O)CC2)CC1` was tested, and the IC50 was > 99.5 µM.
`CCC1CN(C(=O)c2cc(Cl)ccc2NS(=O)(=O)c2ccc(Oc3ccccc3Cl)cc2)C1` was tested, and the IC50 was > 99.5 µM.
